Laboratory results from patent US8686147B2, “Compound with serotoninergic activity, process for preparing it and pharmaceutical composition comprising it” (Aziende Chimiche Riunite Angelini Francesco A.C.R.A.F. …, priority 2009, dated 2014).

Legend:
5-HT4 serotonin receptor = target: T1, 5-HT4 serotonin receptor (Cavia porcellus, UniProt O70528); test: Binding to the 5-HT4 serotonin receptor (radioligand binding, homogenate of guinea pig striatum); conditions: six concentrations, read-out: 5-HT4 (pKi) (converted)
T1 construct: The starting materials used were an homogenate of guinea pig striatum; from tissue; host or cells: guinea pig striatum homogenate
T1 sequence (O70528 whole entry): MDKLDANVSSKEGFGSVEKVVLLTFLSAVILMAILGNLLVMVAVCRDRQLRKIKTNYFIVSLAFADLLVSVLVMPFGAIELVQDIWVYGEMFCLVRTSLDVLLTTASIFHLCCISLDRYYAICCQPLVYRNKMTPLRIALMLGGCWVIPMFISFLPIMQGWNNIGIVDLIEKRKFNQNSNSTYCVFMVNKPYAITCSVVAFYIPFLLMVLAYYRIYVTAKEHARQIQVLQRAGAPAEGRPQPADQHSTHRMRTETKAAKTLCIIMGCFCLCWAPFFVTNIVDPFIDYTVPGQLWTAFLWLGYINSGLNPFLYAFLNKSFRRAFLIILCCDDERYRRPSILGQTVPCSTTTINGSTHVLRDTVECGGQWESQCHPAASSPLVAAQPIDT
Method: (§1) Confirmation of the binding to the serotoninergic receptors was performed by means of a biochemical test on purified membranes from recombinant human cells that stably express the specific receptors or from selected animal tissues as described in particular in Grossman C.
(§2) Confirmation of the binding to the serotoninergic receptors was made using purified membranes from selected animal tissues or from recombinant human cells that stably express the specific receptors.
Binding to the 5-HT4 serotonin receptor was performed using standard methods described in: Grossman C. […] The test compounds were tested at six concentrations to obtain the pKi values of the individual compounds.

[1] = target: T2, human 5-HT2A serotonin receptor (Homo sapiens, UniProt P28223); test: Binding to the human 5-HT2A serotonin receptor; conditions: human 5-HT2A receptor, six concentrations; for Ki: read-out: 5-HT2 (pKi) (converted)
T2 construct: expressed in transfected cells
T2 sequence (P28223 whole entry): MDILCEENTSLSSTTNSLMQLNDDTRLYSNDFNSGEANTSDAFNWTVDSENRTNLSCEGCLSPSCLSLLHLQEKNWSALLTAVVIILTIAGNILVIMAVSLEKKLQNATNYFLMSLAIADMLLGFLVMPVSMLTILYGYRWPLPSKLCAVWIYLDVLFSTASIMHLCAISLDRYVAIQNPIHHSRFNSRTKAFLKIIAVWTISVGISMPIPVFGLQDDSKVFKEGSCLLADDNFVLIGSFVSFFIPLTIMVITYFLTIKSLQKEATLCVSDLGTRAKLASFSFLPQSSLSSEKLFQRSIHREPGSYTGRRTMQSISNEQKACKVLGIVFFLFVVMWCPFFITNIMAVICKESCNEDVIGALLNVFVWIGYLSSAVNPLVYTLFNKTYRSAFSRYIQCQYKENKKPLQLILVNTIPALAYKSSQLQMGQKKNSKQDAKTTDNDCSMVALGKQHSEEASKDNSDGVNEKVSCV
Method: as §1, with “C. J. et al. (1993), Br. J. Pharmacol. 109: 618-624, Bonhaus D. W. et al. (1995), Br. J. Pharmacol. 115(4): 622-628; and Saucier C. et al. (1997), J. Neurochem. 68(5): 1998-2011.” for “C.”
as §2
Binding to the human 5-HT2A serotonin receptor was performed via the standard method described in Bonhaus, D. W., Bach C., De Souza A., Salazar F. H., Matsuoka B. D., Zuppan P., Chan H. W., Eglen R. M. (1995): “The pharmacology and distribution of human 5-hydroxytryptamine 2B (5-HT2B) receptor gene products: comparison with 5-HT2A and 5-HT2C receptors.” Br. J. Pharmacol. 115(4): 622-628; and Saucier C., Albert P. R. (1997): “Identification of an endogenous 5-hydroxytryptamine 2A receptor in NIH-3T3 cells: agonist-induced down-regulation involves decreases in receptor RNA and number.” J. Neurochem. 68(5): 1998-2011. The test compounds were tested at six concentrations to obtain the pKi values of the individual compounds.
The values of affinity for the 5-HT4 and 5-HT2A receptor of a number of compounds of formula (I) according to the present invention are given, respectively, in Tables 2 and 3, and expressed as pKi, the value of which is proportionately greater the greater the affinity of the compound for the receptor.

Molecule `Cl.Cn1cc2c(OCC3CCN(CC(=O)Nc4ccccc4)CC3)nc3ccccc3c2c1` has a melting point of 163 to 165 °C.
Molecule `CCCCN1CCC(COc2nc3ccccc3c3cn(C)cc23)CC1` [Compound 3, 4-[(1-Butylpiperid-4-yl)methyloxy]-2-methyl-2H-pyrrolo[3,4-c]quinoline] has a Ki (5-HT4 serotonin receptor) of 0.0148 µM and a Ki [1] greater than 1 µM.
`Cn1cc2c(OCC3CCN(CCc4ccccc4)CC3)nc3ccccc3c2c1` [Compound 4, 4-{[1-(2-Phenyl)ethylpiperidine-4-yl]methoxy}-2-methyl-2H-pyrrolo[3,4-c]quinoline] showed a Ki (5-HT4 serotonin receptor) of 0.00186 µM.
`CC(C)n1cc2c(OCC3CCN(CCc4ccccc4)CC3)nc3ccccc3c2c1` [Compound 5, 4-{[1-(2-Phenyl)ethylpiperid-4-yl]methoxy}-2-isopropyl-2H-pyrrolo[3,4-c]quinoline] showed a Ki (5-HT4 serotonin receptor) of 0.138 µM.
`Cn1cc2c(OCC3CCN(CC(=O)Nc4ccccc4)CC3)nc3ccccc3c2c1` [Compound 6, N-Phenyl-2-{4-[2-methyl-2H-pyrrolo[3,4-c]quinolin-4-yloxy-methyl]piperid-1-yl}acetamide] showed a Ki (5-HT4 serotonin receptor) of 0.132 µM.
For `Cl.Cn1cc2c(OCC3CCN(CCN4CCOCC4)CC3)nc3ccccc3c2c1` [Compound 9a, 4-{[1-(2-(4-Morpholinyl)ethyl)piperid-4-yl]methyloxy}-2-methyl-2H-pyrrolo[3,4-c]quinoline hydrochloride], the Ki (5-HT4 serotonin receptor) was 0.00229 µM, the Ki [1] was greater than 10 µM and the melting point was 190 to 192 °C.
In the case of `Cl.Cn1cc2c(OCC3CCN(CCc4ccc(N)cc4)CC3)nc3ccccc3c2c1` [Compound 11a, 4-[(1-(4-Aminophenylethyl)piperid-4-yl)methyloxy]-2-methyl-2H-pyrrolo[3,4-c]quinoline hydrochloride], the Ki (5-HT4 serotonin receptor) is reported as 0.00457 µM, the “5-HT2 (pKi)” value [1] is reported as 6.6 and the melting point is reported as 165 to 167 °C.
Molecule `Cn1cc2c(OCC3CCN(CCc4ccc(C(=O)O)cc4)CC3)nc3ccccc3c2c1` [Compound 12a] has a Ki (5-HT4 serotonin receptor) of 0.00224 µM and a Ki [1] greater than 10 µM.
Molecule `CC(=O)Nc1ccc(CCN2CCC(COc3nc4ccccc4c4cn(C)cc34)CC2)cc1` [Compound 13, 4-[(1-(4-Acetamidophenylethyl)piperid-4-yl)methyloxy]-2-methyl-2H-pyrrolo[3,4-c]quinoline] has a Ki (5-HT4 serotonin receptor) of 0.00186 µM and a Ki [1] greater than 1 µM.
`COCc1ccc(CCN2CCC(COc3nc4ccccc4c4cn(C)cc34)CC2)cc1` [Compound 16, 4-[(1-(4-Methoxymethylphenylethyl)piperid-4-yl)methyloxy]-2-methyl-2H-pyrrolo[3,4-c]quinoline] gave a Ki (5-HT4 serotonin receptor) of 0.0191 µM.
